The text below walks through data of ChEMBL document CHEMBL1150061, “Isolation of 9-Dihydro-13-acetylbaccatin III from Taxus canadensis” (J Nat Prod, 1992).

In brackets after ≈: the same amount, converted by molar mass.

The test system of this experiment is P388. Kind of experiment: Antiproliferative activity against mouse P388 cells by MTT assay. In kind it is functional, cell-based. On the technique in general: Tetrazolium assays rely on reduction of a dye to a coloured formazan, in cell work by metabolically active cells.

Usually IC50 stands for the concentration needed to halve the response being measured. Read a low IC50 as inhibition by little substance. As to `CC(=O)O[C@H]1C[C@@]2(O)[C@@H](OC(=O)c3ccccc3)[C@@H]3[C@]4(OC(C)=O)CO[C@@H]4C[C@H](O)[C@@]3(C)[C@@H](O)[C@H](OC(C)=O)C(=C1C)C2(C)C`, 20 µg/mL (≈ 31.7 µM) corresponded to half-maximal inhibition (IC50).
`CC(=O)O[C@H]1C(=O)[C@@]2(C)[C@H]([C@H](OC(=O)c3ccccc3)[C@]3(O)C[C@H](OC(=O)[C@H](O)[C@@H](NC(=O)c4ccccc4)c4ccccc4)C(C)=C1C3(C)C)[C@]1(OC(C)=O)CO[C@@H]1C[C@@H]2O` [PACLITAXEL] showed an IC50 of 0.05 µg/mL (≈ 0.0586 µM).
